Results reported in paper PMC6792352, “Limited Chemical Structural Diversity Found to Modulate Thyroid Hormone Receptor in the Tox21 Chemical Library” (Environmental Health Perspectives, 2019).
Counter-ions that a name gives are not always drawn.

Experiment: in vitro
Details: rat, gh3-tre-luc cells

Question: For `c1ccc2nccnc2c1` [Quinoxaline], which CC50 at 24 h (AC50 (uM) modified / 1000) is on record?
Answer: > 90 µM

Question: For `CCC#N` [Propionitrile], which CC50 at 24 h (AC50 (uM) modified / 1000) is on record?
Answer: > 100 µM

Question: For `c1ccc(-c2ccc(-c3ccccc3)cc2)cc1` [1,1':4',1''-Terphenyl], which CC50 at 24 h (AC50 (uM) modified / 1000) is on record?
Answer: > 20 µM

Question: With `O=C(NC1CCN(CCc2c[nH]c3ccccc23)CC1)c1ccccc1` [Indoramin hydrochloride] as the molecule, how does the CC50 at 24 h (AC50 (uM) modified / 1000) read?
Answer: 22.2 µM

Question: With `O=c1[nH]c(=O)n([C@H]2C[C@H](O)[C@@H](CO)O2)cc1F` [Floxuridine] as the molecule, how does the CC50 at 24 h (AC50 (uM) modified / 1000) read?
Answer: > 50 µM

Question: For `Cc1coc2c1CCC(C)C2` (stereo not drawn) [Menthofuran], which CC50 at 24 h (AC50 (uM) modified / 1000) is on record?
Answer: > 90 µM

Question: Which CC50 at 24 h (AC50 (uM) modified / 1000) does the source give for `COCC(O)CO` (stereo not drawn) [1-O-Methylglycerol] here?
Answer: > 100 µM

Question: For `CCOC(=O)OCC/C(SC(=O)OCC)=C(\C)N(C=O)Cc1cnc(C)nc1N` [Dicethiamine hydrochloride], which CC50 at 24 h (AC50 (uM) modified / 1000) is on record?
Answer: > 50 µM

Question: For `COc1ccc(/C=N/NC(=O)c2ccncc2)c(C(=O)O)c1OC` [Opiniazide], which CC50 at 24 h (AC50 (uM) modified / 1000) is on record?
Answer: > 50 µM

Question: For `Clc1cc(Cl)c(OCC#CI)cc1Cl` [Haloprogin], which CC50 at 24 h (AC50 (uM) modified / 1000) is on record?
Answer: 11.9 µM

Question: For `O=C1CCC(C2CCCCC2)CC1` [4-Cyclohexylcyclohexanone], which CC50 at 24 h (AC50 (uM) modified / 1000) is on record?
Answer: > 90 µM

Question: For `O=c1ccc2ccccc2o1` [Coumarin], which CC50 at 24 h (AC50 (uM) modified / 1000) is on record?
Answer: > 90 µM

Question: For `COc1cc(OC)c(OC)cc1C=O` [2,4,5-Trimethoxybenzaldehyde], which CC50 at 24 h (AC50 (uM) modified / 1000, Tox21_110001=Tox21_400070, viability, 1 nM T3 present, 24 h) is on record?
Answer: > 90 µM

Question: For `CC(C)(C(=O)c1cccnc1)c1cccnc1` [Metyrapone], which CC50 at 24 h (AC50 (uM) modified / 1000) is on record?
Answer: > 20 µM

Question: For `CCCN(CCC)S(=O)(=O)c1ccc(C(=O)O)cc1` [Probenecid], which CC50 at 24 h (AC50 (uM) modified / 1000) is on record?
Answer: > 90 µM

Question: Which CC50 at 24 h (AC50 (uM) modified / 1000) does the source give for `COC(=O)c1ccccc1OC` [Methyl 2-methoxybenzoate] here?
Answer: > 90 µM

Question: With `C[C@H](N)[C@H](O)c1ccccc1` [Phenylpropanolamine hydrochloride] as the molecule, how does the CC50 at 24 h (AC50 (uM) modified / 1000, Tox21_110001=Tox21_110431, viability, 1 nM T3 present, 24 h) read?
Answer: > 20 µM

Question: Which CC50 at 24 h (AC50 (uM) modified / 1000) does the source give for `O=S(=O)(Oc1ccc(Cl)cc1)c1ccccc1` [Fenson] here?
Answer: > 90 µM

Question: With `CC1=CC(O)CC(C)(C)C1` (stereo not drawn) [3,5,5-Trimethyl-2-cyclohexen-1-ol] as the molecule, how does the CC50 at 24 h (AC50 (uM) modified / 1000) read?
Answer: > 90 µM

Question: Which CC50 at 24 h (AC50 (uM) modified / 1000) does the source give for `Nc1ccc2ccccc2c1S(=O)(=O)O` [2-Amino-1-naphthalenesulfonic acid] here?
Answer: > 90 µM

Question: For `COc1cc(C(=O)NCCCCCC(=O)O)cc(OC)c1OC` [Capobenic acid], which CC50 at 24 h (AC50 (uM) modified / 1000) is on record?
Answer: > 50 µM

Question: For `C[N+]1([O-])CCOCC1` [4-Methylmorpholine 4-oxide], which CC50 at 24 h (AC50 (uM) modified / 1000) is on record?
Answer: > 90 µM

Question: For `Cc1cc(-n2c(=O)[nH]c(=O)n(C)c2=O)ccc1Oc1ccc(S(=O)(=O)C(F)(F)F)cc1` [Toltrazuril sulfone], which CC50 at 24 h (AC50 (uM) modified / 1000) is on record?
Answer: > 50 µM

Question: Which CC50 at 24 h (AC50 (uM) modified / 1000) does the source give for `CCCCC/C=C\C/C=C\C/C=C\CCCCC(=O)O` [Gamolenic acid] here?
Answer: > 50 µM

Question: For `C[C@@H]1[C@H](O)[C@@H](C)/C=C/C=C/C=C/C=C/C=C/C=C/C=C/[C@H](O[C@@H]2O[C@H](C)[C@@H](O)[C@H](N)[C@@H]2O)C[C@@H]2O[C@](O)(C[C@@H](O)C[C@@H](O)[C@H](O)CC[C@@H](O)C[C@@H](O)CC(=O)O[C@H]1C)C[C@H](O)[C@H]2C(=O)O` [Amphotericin B], which CC50 at 24 h (AC50 (uM) modified / 1000) is on record?
Answer: 32.9 µM

Question: With `O=S(=O)(c1ccccc1)c1ccccc1` [Diphenylsulfone] as the molecule, how does the CC50 at 24 h (AC50 (uM) modified / 1000, Tox21_110001=Tox21_301190, viability, 1 nM T3 present, 24 h) read?
Answer: > 90 µM

Question: With `NCC1(CC(=O)O)CCCCC1` [Gabapentin] as the molecule, how does the CC50 at 24 h (AC50 (uM) modified / 1000) read?
Answer: > 20 µM

Question: For `O=S1OCCO1` [Glycol sulfite], which CC50 at 24 h (AC50 (uM) modified / 1000) is on record?
Answer: > 100 µM

Question: For `O=C1CSC2(CCN(CCCN3c4ccccc4Sc4ccc(Cl)cc43)CC2)N1` [Spiclomazine hydrochloride], which CC50 at 24 h (AC50 (uM) modified / 1000) is on record?
Answer: 6.81 µM

Question: Which CC50 at 24 h (AC50 (uM) modified / 1000) does the source give for `CC(CN(C)C)C(C)(O)Cc1ccc(Cl)cc1` (stereo not drawn) [Clobutinol hydrochloride] here?
Answer: > 50 µM

Question: Which CC50 at 24 h (AC50 (uM) modified / 1000) does the source give for `O=C1Nc2ccccc2C1=O` [Isatin] here?
Answer: > 90 µM

Question: With `CCOC(=O)c1cnc2cc(OCC(C)C)c(OCC(C)C)cc2c1O` [Buquinolate] as the molecule, how does the CC50 at 24 h (AC50 (uM) modified / 1000) read?
Answer: > 50 µM

Question: For `Nc1ccc2cc(S(=O)(=O)O)cc(O)c2c1` [6-Amino-4-hydroxynaphthalene-2-sulfonic acid], which CC50 at 24 h (AC50 (uM) modified / 1000) is on record?
Answer: > 90 µM

Question: With `CCOc1ccc(O)cc1` [4-Ethoxyphenol] as the molecule, how does the CC50 at 24 h (AC50 (uM) modified / 1000) read?
Answer: > 90 µM

Question: For `CC(C)(C)c1cccc(C(C)(C)C)c1O` [2,6-Di-tert-butylphenol], which CC50 at 24 h (AC50 (uM) modified / 1000) is on record?
Answer: > 90 µM

Question: With `C=C[C@H]1CN2CC[C@H]1C[C@H]2[C@H](OC(=O)OCC)c1ccnc2ccc(OC)cc12` [Quinine ethyl carbonate] as the molecule, how does the CC50 at 24 h (AC50 (uM) modified / 1000) read?
Answer: > 50 µM

Question: For `CC[C@@]1(O)C[C@H](O[C@H]2C[C@H](N(C)C)[C@H](O[C@H]3C[C@H](O)[C@H](O[C@H]4CCC(=O)[C@H](C)O4)[C@H](C)O3)[C@H](C)O2)c2c(cc3c(c2O)C(=O)c2c(O)cccc2C3=O)[C@H]1C(=O)OC` [Aclarubicin hydrochloride], which CC50 at 24 h (AC50 (uM) modified / 1000) is on record?
Answer: 0.114 µM

Question: For `COc1ccc2[nH]c([S+]([O-])Cc3ncc(C)c(OC)c3C)nc2c1` (stereo not drawn) [Omeprazole], which CC50 at 24 h (AC50 (uM) modified / 1000) is on record?
Answer: > 90 µM

Question: Which CC50 at 24 h (AC50 (uM) modified / 1000) does the source give for `CCOC(=O)COc1ccc2c(=O)cc(-c3ccccc3)oc2c1` [Efloxate] here?
Answer: > 50 µM
